Where two headings read alike, the source gives them in different places.
Columns and labels:
human SERT wild type = human SERT wild type (Homo sapiens (Human), UniProt P31645); assay type: cell-based; conditions: for Ki: read-out: hSERT WT Ki [S.E. interval]
Excerpt: (§1) Molecular Pharmacology Site-directed mutagenesis: Synthetic cDNA encoding the human DAT (synDAT) were subcloned into pcDNA3 (Invitrogen, Carlsbad, Calif.). cDNA encoding the human SERT (hSERT) was cloned into the pUbilz expression vector. Mutations herein were generated by the QuickChange method (adapted from Stratagene, La Jolla, Calif.) and confirmed by restriction enzyme mapping and DNA sequencing. Positive clones were amplified by transformation into XL1 blue competent cells (Stratagene) and positive colony picked and grown in LB media over night at 37° C. in an orbital incubator (Infors) @ 200 rpm. Plasmids were harvested using the maxi prep kit provided by Qiagen according to the manufacturer's manual.
(§2) Uptake assays were performed essentially as previously described to Cha, J. H.; Zou, M. F.; Adkins, E. M.; Rasmussen, S. G.; Loland, C. J.; Schoenenberger, B.; Gether, U.; Newman, A. H. Rhodamine-Labeled 2beta-Carbomethoxy-3beta-(3,4-Dichlorophenyl)Tropane Analogues as High-Affinity Fluorescent Probes for the Dopamine Transporter. […] Transiently transfected COS-7 cells were plated in 12-well (3*10^5 cells/well) or 24-well dishes (10^5 cells/well) coated with poly-ornithine to achieve an uptake level of no more than 10% of total added radioligand. The uptake assays were carried out 2 days after transfection. Prior to the experiment, the cells were washed once in 500 μl of uptake buffer buffer (25 mM 4-(2-hydroxyethyl)-1-piperazineethanesulfonic acid (HEPES), 130 mM NaCl, 5.4 mM KCl, 1.2 mM CaCl2, 1.2 mM MgSO4, 1 mM L-ascorbic acid, 5 mM D-glucose, and 1 μM of the catechol-O-methyltransferase inhibitor Ro 41-0960 (Sigma), pH 7.4) at room temperature (RT). […] All samples were transferred to 24-well counting plates and 500 μL (or 600 μL) of Opti-phase Hi Safe 3 scintillation fluid (Perkin Elmer) was added followed by counting of the plates in a Wallac Tri-Lux β-scintillation counter (Perkin Elmer). Nonspecific uptake was determined in the presence of 5 μM paroxetine for hSERT and 50 μM nomifensine for hDAT expressing cells. All determinations were performed in triplicate.

human SERT T497A mutant = human SERT T497A mutant (Homo sapiens (Human), UniProt P31645, T497A); assay type: cell-based; conditions: for Ki: read-out: hSERT T497A Ki [S.E. interval]
Excerpt: as §1, §2

human DAT A480T mutant = human DAT A480T mutant (Homo sapiens (Human), UniProt Q01959, A480T); test: [3H]DA uptake inhibition in intact COS7 cells, hDAT A480T; conditions: for Ki: read-out: hDAT A480T Ki [S.E. interval], [3H]DA uptake inhibition potency; for affinity at DAT A480T compared to DAT WT: uptake inhibition
human DAT wild type = human DAT wild type (Homo sapiens (Human), UniProt Q01959); test: [3H]DA uptake inhibition in intact COS7 cells, hDAT WT; assay type: cell-based; conditions: [3H]DA uptake inhibition potency, read-out: hDAT WT Ki [S.E. interval]
NET = NET (Rattus norvegicus (Rat), UniProt Q9WTR4); test: Norepinephrine Transporter Binding Assay ([3H]Nisoxetine, rat frontal cortex membranes)
Method: Binding affinities of all compounds were evaluated at the DAT, SERT, and NET in rat brain membranes using previously described methods:
Norepinephrine Transporter Binding Assay. Brains from male Sprague-Dawley rats weighing 200-225 g (Taconic Labs, Germantown, N.Y.) were removed, frontal cortex dissected and rapidly frozen. Membranes were prepared by homogenizing tissues in 20 volumes (w/v) of 50 mM Tris containing 120 mM NaCl and 5 mM KCl, (pH 7.4 at 25° C.), using a Brinkman Polytron and centrifuged at 50,000×g for 10 min at 4° C. The resulting pellet was resuspended in buffer, recentrifuged and resuspended in buffer to a concentration of 80 mg/mL. Ligand binding experiments were conducted in assay tubes containing 0.5 mL buffer for 60 min at 0-4° C. […] Nonspecific binding was determined using 1 mM desipramine. Incubations were terminated by rapid filtration through Whatman GF/B filters, presoaked in 0.05% polyethylenimine, using a Brandel R48 filtering manifold (Brandel Instruments Gaithersburg, Md.). The filters were washed twice with 3 mL cold buffer and transferred to scintillation vials. Beckman Ready Value (3.0 mL) was added and the vials were counted using a Beckman 6000 liquid scintillation counter (Beckman Coulter Instruments, Fullerton, Calif.). […] All compounds were tested as racemic mixtures.

[1] = Phase II glucuronidation stability in mouse liver microsomes (UDPGA); assay type: in vitro ADME
Method: Phase I and phase II metabolic stability assay for was conducted in mouse liver microsomes. For phase I metabolism, the reaction was carried out with 100 mM potassium phosphate buffer, pH 7.4, in the presence of NADPH regenerating system (1.3 mM NADPH, 3.3 mM glucose 6-phosphate, 3.3 mM MgCl2, 0.4 U/mL glucose-6-phosphate dehydrogenase, 50 μM sodium citrate). Reactions in duplicate were initiated by addition of the liver microsomes to the incubation mixture (compound final concentration was 10 μM; 0.5 mg/mL microsomes). For phase II glucuronidation reaction compound was added to TRIS-HCl buffer (50 mM, pH 7.5) with microsomes (0.5 mg/mL), along with MgCl2 (8 mM), and alamethicin (25 μg/mL) and pre-incubated at 37° C. The reaction was initiated (in duplicate) with UDPGA at a final concentration of 2 mM. Negative controls in the absence NADPH and UDPGA were carried for both phase I and phase II metabolism respectively, to determine the specific cofactor free degradation. […] Compound disappearance was monitored over time using a liquid chromatography and tandem mass spectrometry (LC/MS/MS) method.
Compounds were separated on an Agilent 1290 UPLC system with a c18 column using a gradient run of 55:45-5:95 water:acetonitrile over 3.2 minutes and detected on an Agilent 6520 QTOF mass spectrometer.

ON(O)CCc1ccccc1 = test: cells, lysate or membranes; conditions: other: [3H]DA uptake, COS7 cells; pH 7.4; 37.0 °C
DAT = DAT (Rattus norvegicus (Rat), UniProt P23977); test: Dopamine Transporter Binding Assay ([3H]WIN 35428, rat striatal membranes)
SERT = SERT (Rattus norvegicus (Rat), UniProt P31652); conditions: 2i v. 2g (Table 1); 4c v. 4a (Table 2)
Method: Brains from male Sprague-Dawley rats weighing 200-225 g (Taconic Labs, Germantown, N.Y.) were removed, midbrain dissected and rapidly frozen. […] Nonspecific binding was determined using 10 mM fluoxetine. […] The filters were washed twice with 3 mL cold buffer and transferred to scintillation vials. Beckman Ready Value (3.0 mL) was added and the vials were counted the next day using a Beckman 6000 liquid scintillation counter (Beckman Coulter Instruments, Fullerton, Calif.). […] Data were analyzed with GraphPad Prism software (San Diego, Calif.).

[2] = Brain concentrations in mice; conditions: mouse brain; for IV brain Conc. ng/g ± SD: 10 mg/kg IV; for PO brain Conc. ng/g ± SD: 10 mg/kg PO
Method: Plasma was harvested from blood by centrifugation. Additionally at two selected time points (i.e. 30 min and 2 h) brains were collected following both oral and IV dosing. Samples were extracted from plasma by a single one-step protein precipitation method (as described in bioanalysis section below). For brain tissue, whole brains were weighed and homogenized in two times the volume of acetonitrile, followed by vortexing and centrifugation. Once extracted, the samples were analyzed via LC/MS/MS (as described in bioanalysis section below). Non-compartmental-analysis module in WinNonlin™ (version 5.3) was used to assess pharmacokinetic parameters including maximal concentration (Cmax), time to Cmax (Tmax), area under the curve (AUClast), area extrapolated to infinity (AUCO-∞), terminal disposition rate constant (ke), and terminal half-life (t½).
Briefly, plasma samples were thawed on ice prior to extraction. Samples (50 μL) were extracted in 300 μL acetonitrile containing 1000 nM losartan as internal standard. For brain, 50 μL of the supernatant from homogenized tissue was extracted with 100 μL acetonitrile containing 1000 nM losartan as internal standard. Extracts were centrifuged at 16000×g at 4° C. for 10 minutes. Supernatants were transferred to a new siliconized tube and dried under N2 at 45° C. for 30 min. Samples were reconstituted with 100 μL of 30% acetonitrile, vortexed and centrifuged. Supernatants (95 μL) were transferred to a 250 μL polypropylene autosampler vials sealed with a Teflon cap and a volume of 10 μL was injected onto the ultra-performance liquid chromatography (UPLC) instrument for quantitative analysis using a temperature-controlled autosampler operating at 10° C.
The instrument was controlled by the Xcalibur software 2.3 (Thermo Scientific). Samples were introduced to the interface through Turbo Ion Spray with the temperature setting at 350° C.
Chromatographic analysis was performed using an Accela™ ultra high-performance system consisting of an analytical pump, and an autosampler coupled with TSQ Vantage mass spectrometer (Thermo Fisher Scientific Inc., Waltham Mass.).

[3] = substrate: ON(O)CCc1ccccc1; test: [3H]DA uptake inhibition in intact COS7 cells, hDAT WT; assay type: cell-based, human; conditions: other: [3H]DA uptake, pH 7.4, 37.0 °C

Sequence of human DAT A480T mutant (Q01959 whole entry A480T): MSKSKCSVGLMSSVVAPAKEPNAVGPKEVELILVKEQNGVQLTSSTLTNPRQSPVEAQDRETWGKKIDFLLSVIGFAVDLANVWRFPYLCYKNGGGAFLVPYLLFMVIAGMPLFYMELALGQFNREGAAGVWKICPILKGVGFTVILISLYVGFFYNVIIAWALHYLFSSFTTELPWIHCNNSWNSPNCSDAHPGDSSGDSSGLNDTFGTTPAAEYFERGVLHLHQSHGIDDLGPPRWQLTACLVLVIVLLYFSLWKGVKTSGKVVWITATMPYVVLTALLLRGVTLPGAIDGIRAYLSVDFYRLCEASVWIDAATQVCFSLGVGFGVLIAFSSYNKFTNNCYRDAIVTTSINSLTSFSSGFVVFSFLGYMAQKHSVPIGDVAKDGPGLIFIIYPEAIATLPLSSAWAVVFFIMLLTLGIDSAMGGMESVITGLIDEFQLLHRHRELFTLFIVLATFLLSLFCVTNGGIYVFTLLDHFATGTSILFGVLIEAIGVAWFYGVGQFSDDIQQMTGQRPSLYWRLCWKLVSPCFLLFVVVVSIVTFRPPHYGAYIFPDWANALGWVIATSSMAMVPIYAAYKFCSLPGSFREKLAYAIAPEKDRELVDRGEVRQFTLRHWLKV
Sequence of NET (Q9WTR4 entry or part of it): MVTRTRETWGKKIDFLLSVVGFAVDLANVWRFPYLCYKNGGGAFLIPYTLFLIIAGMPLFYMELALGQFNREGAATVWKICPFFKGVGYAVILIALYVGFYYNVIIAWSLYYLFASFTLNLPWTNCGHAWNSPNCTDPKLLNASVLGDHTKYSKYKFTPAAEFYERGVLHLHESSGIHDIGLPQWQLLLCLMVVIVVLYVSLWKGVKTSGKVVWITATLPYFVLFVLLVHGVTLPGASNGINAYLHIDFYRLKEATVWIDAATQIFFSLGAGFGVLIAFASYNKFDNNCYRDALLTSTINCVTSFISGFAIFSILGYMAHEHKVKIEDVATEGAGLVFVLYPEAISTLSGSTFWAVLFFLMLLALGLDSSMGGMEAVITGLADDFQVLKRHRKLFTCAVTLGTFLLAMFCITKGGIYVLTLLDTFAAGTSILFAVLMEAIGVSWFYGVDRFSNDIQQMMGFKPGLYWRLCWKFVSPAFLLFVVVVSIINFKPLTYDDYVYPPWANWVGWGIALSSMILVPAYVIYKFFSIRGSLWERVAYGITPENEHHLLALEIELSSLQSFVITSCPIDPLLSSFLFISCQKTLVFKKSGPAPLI
Sequence of DAT (P23977 whole entry): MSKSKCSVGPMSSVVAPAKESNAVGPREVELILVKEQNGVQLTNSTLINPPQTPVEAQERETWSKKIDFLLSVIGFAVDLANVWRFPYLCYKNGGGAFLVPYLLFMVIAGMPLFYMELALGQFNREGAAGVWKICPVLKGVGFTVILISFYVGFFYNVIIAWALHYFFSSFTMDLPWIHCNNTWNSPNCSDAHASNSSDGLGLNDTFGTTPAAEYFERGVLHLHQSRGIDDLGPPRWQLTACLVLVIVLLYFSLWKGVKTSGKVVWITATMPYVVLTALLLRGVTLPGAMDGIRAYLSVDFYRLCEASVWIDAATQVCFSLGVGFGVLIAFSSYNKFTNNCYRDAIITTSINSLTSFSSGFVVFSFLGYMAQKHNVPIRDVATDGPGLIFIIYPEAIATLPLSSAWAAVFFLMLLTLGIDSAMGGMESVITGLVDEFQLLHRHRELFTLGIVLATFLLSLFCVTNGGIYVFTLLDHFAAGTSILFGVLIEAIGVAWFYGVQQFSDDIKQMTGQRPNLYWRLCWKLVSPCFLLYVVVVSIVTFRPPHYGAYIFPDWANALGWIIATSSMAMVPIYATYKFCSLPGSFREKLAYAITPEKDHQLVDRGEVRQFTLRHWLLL
Sequence of SERT (P31652 whole entry): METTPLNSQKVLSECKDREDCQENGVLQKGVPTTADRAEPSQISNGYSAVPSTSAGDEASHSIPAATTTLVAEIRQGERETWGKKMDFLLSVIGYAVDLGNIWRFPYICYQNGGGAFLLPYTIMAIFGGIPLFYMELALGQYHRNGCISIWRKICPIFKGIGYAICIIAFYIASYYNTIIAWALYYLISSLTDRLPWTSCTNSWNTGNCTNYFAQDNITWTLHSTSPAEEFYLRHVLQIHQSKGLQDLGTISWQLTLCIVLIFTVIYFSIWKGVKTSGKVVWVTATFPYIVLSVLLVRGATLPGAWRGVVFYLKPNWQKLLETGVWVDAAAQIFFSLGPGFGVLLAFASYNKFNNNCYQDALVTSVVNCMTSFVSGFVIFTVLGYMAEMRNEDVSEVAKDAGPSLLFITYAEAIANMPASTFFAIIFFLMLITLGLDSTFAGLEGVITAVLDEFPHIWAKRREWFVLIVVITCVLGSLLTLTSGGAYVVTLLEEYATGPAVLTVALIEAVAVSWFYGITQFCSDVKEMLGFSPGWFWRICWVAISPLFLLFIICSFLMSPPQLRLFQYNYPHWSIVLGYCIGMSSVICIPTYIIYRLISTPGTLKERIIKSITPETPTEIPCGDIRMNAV

NCCSC(c1ccc(Cl)cc1)c1ccc(Cl)cc1 [Compound 4b, 2-((bis(4-chlorophenyl)methyl)thio)ethan-1-amine]
Ki (human SERT wild type): 270 nM | affinity at SERT T497A compared to SERT WT (human SERT T497A mutant): remain unchanged | Ki (human SERT T497A mutant): 170 nM | Ki (human DAT A480T mutant): 1370 nM | affinity at DAT A480T compared to DAT WT (human DAT A480T mutant): remain unchanged | Ki (human DAT wild type): 1210 nM

NCCc1c[nH]c2ccc(O)cc12 [Compound 5-HT, 5-hydroxytryptamine, reference compound]
Km (human SERT wild type; read-out: hSERT WT KM): 0.52 µM | Km (human SERT T497A mutant; read-out: hSERT T497A KM): 1.09 µM

NCCSC(c1ccccc1)c1ccccc1 [Compound 4a, 2-(benzhydrylthio)ethan-1-amine]
Ki (human SERT wild type): 690 nM | Ki (human SERT T497A mutant): 630 nM | affinity at SERT T497A compared to SERT WT (human SERT T497A mutant; uptake inhibition, COS7 cells): remain unchanged | Ki (NET): 982 ± 43.3 nM | Ki (human DAT A480T mutant): 720 nM | affinity at DAT A480T compared to DAT WT (human DAT A480T mutant): remain unchanged | Ki (human DAT wild type): 390 nM

CNC(=O)CSC(c1ccc(Cl)cc1)c1ccc(Cl)cc1 [Compound 2h, 2-((Bis(4-chlorophenyl)methyl)thio)-N-methylacetamide]
Ki (human SERT wild type): 8300 nM | Ki (human SERT T497A mutant): 27000 nM | affinity at SERT T497A compared to SERT WT (human SERT T497A mutant; uptake inhibition, COS7 cells): significantly decreased | Ki (human DAT A480T mutant): 2300 nM | affinity at DAT A480T compared to DAT WT (human DAT A480T mutant): essentially the same | Ki (human DAT wild type): 3700 nM

Cc1cc(=O)oc2cc(O)ccc12 [4 Methyl Umbelliferone, 4-methylumbelliferone]
Phase II, parent compound remaining ([1]; 0 min): 100% | Phase II, parent compound remaining ([1]; 60 min): 3.10%

human DAT A480T mutant (Homo sapiens; A480T)
Km (ON(O)CCc1ccccc1): 1,930 nM

CNC(=O)CSC(c1ccc(Br)cc1)c1ccc(Br)cc1 [Compound 2i, 2-((Bis(4-bromophenyl)methyl)thio)-N-methylacetamide]
Ki (NET): 11200 nM | improvement in DAT affinity, halogen-substituted v. unsubstituted analog (DAT): 6 fold | increase in SERT affinity, halogen-substituted v. unsubstituted analog (SERT): > 50 fold

NCCSC(c1ccc(Br)cc1)c1ccc(Br)cc1 [Compound 4c, 2-((bis(4-bromophenyl)methyl)thio)ethan-1-amine]
improvement in DAT affinity, halogen-substituted v. unsubstituted analog (DAT): 3 fold | increase in SERT affinity, halogen-substituted v. unsubstituted analog (SERT): 9 fold

[O-][S+](CCNCCCc1ccccc1)C(c1ccc(Br)cc1)c1ccc(Br)cc1 (stereo not shown) [Compound 5e, N-(2-((bis(4-bromophenyl)methyl)sulfinyl)ethyl)-3-phenylpropan-1-amine]
Ki (NET): 7580 nM | selectivity among the monoamine transporters (in words) (DAT; DAT, SERT, NET binding, rat brain membranes): SERT-selective

Fc1ccc(C(SCCNCCCc2ccccc2)c2ccc(F)cc2)cc1 [Compound 4g, N-(2-((bis(4-fluorophenyl)methyl)thio)ethyl)-3-phenylpropan-1-amine]
Ki (NET): 3850 nM | IV brain Conc. ng/g ± SD ([2]; 0.5 h): 4776 (1324) ng/g | IV brain Conc. ng/g ± SD ([2]; 2 h): 14111 (8093) ng/g | PO brain Conc. ng/g ± SD ([2]; 0.5 h): 369 (303) ng/g | PO brain Conc. ng/g ± SD ([2]; 2 h): 223 (90) ng/g

B1: human DAT wild type (Homo sapiens) (protein)
chain: MSKSKCSVGLMSSVVAPAKEPNAVGPKEVELILVKEQNGVQLTSSTLTNPRQSPVEAQDRETWGKKIDFLLSVIGFAVDLANVWRFPYLCYKNGGGAFLVPYLLFMVIAGMPLFYMELALGQFNREGAAGVWKICPILKGVGFTVILISLYVGFFYNVIIAWALHYLFSSFTTELPWIHCNNSWNSPNCSDAHPGDSSGDSSGLNDTFGTTPAAEYFERGVLHLHQSHGIDDLGPPRWQLTACLVLVIVLLYFSLWKGVKTSGKVVWITATMPYVVLTALLLRGVTLPGAIDGIRAYLSVDFYRLCEASVWIDAATQVCFSLGVGFGVLIAFSSYNKFTNNCYRDAIVTTSINSLTSFSSGFVVFSFLGYMAQKHSVPIGDVAKDGPGLIFIIYPEAIATLPLSSAWAVVFFIMLLTLGIDSAMGGMESVITGLIDEFQLLHRHRELFTLFIVLATFLLSLFCVTNGGIYVFTLLDHFAAGTSILFGVLIEAIGVAWFYGVGQFSDDIQQMTGQRPSLYWRLCWKLVSPCFLLFVVVVSIVTFRPPHYGAYIFPDWANALGWVIATSSMAMVPIYAAYKFCSLPGSFREKLAYAIAPEKDRELVDRGEVRQFTLRHWLKV
Km [3]: 1,160 nM

From US10913711B2, “Potent and selective inhibitors of monoamine transporters; method of making; and use thereof” (priority 2013, dated 2021)
